In patent publication US8445437B2, “Treatment and prevention of cardiovascular disease using mast cell stabilizers” (The Brigham and Women's Hospital, Inc., priority 2006, dated 2013):

Test system: LDLr-/- mice fed an atherogenic (Western) diet
Test: Diet-induced atherosclerosis in LDLr-/- mice with mast cell stabilization or activation
Assay type: in vivo, mouse
Details: male LDLr-/- mice, 25 mg/kg/day daily

`O=C(O)c1cc(=O)c2c(OCC(O)COc3cccc4oc(C(=O)O)cc(=O)c34)cccc2o1` [DSCG, disodium cromoglycate] was tested, and the “reduction of atherosclerotic lesion development” value (12 weeks) was greater than 50% and the “reduction of atherosclerotic lesion development” value (26 weeks) was greater than 50%.
